Measurements taken from patent US10874743B2, “IRAK degraders and uses thereof” (Kymera Therapeutics, Inc., priority 2017, dated 2020).
Like-named read-outs stand apart in the source and are kept apart here.

Experiment: Pharmacokinetics in Sprague Dawley rats (plasma and brain concentrations, PK parameters)
Format: in vivo
Details: for half-life: read-out: T1/2 (converted)
Procedure: Pharmacokinetics for I-127, I-172 and I-210 were determined in Sprague Dawley rats or CD-1 mice by dosing intravenous (IV), subcutaneous (SC) or per oral (PO) using facility SOPs and sampling plasma at required time points. Species, formulation, route of administration and time points samples are listed below for each compound.
Compounds were extracted from plasma, injected on reverse phase HPLC, eluted with a gradient from 5% to 95% acetonitrile in water and quantified by mass spectrometry with internal standard. Data are expressed in ng compound per mL of plasma.

[1] = Sprague Dawley, rat, plasma, po, 10 mg/kg, Sprague Dawley rat, po 10 mg/kg, plasma, Rat 4, read-out: Concentration Rat 4
[2] = Sprague Dawley, rat, plasma, po, 10 mg/kg, Sprague Dawley rat, po 10 mg/kg, plasma, Rat 5, read-out: Concentration Rat 5
[3] = Sprague Dawley, rat, plasma, po, 10 mg/kg, Sprague Dawley rat, po 10 mg/kg, plasma, Rat 6, read-out: Concentration Rat 6
[4] = Sprague Dawley, rat, plasma, po, 10 mg/kg, Sprague Dawley rat, po 10 mg/kg, plasma, mean of 3 rats, read-out: Concentration Mean
[5] = Sprague-Dawley, rat, plasma, iv, 3 mg/kg, Sprague Dawley rat, iv 3 mg/kg, plasma, Rat 1, read-out: Concentration Rat 1
[6] = Sprague-Dawley, rat, plasma, iv, 3 mg/kg, Sprague Dawley rat, iv 3 mg/kg, plasma, Rat 2, read-out: Concentration Rat 2
[7] = Sprague-Dawley, rat, plasma, iv, 3 mg/kg, Sprague Dawley rat, iv 3 mg/kg, plasma, Rat 3, read-out: Concentration Rat 3
[8] = Sprague-Dawley, rat, plasma, iv, 3 mg/kg, Sprague Dawley rat, iv 3 mg/kg, plasma, mean of 3 rats, read-out: Concentration Mean

AUC(0-t) (Sprague Dawley, rat, plasma, po, 10 mg/kg, Rat (Sprague Dawley) po 10 mg/kg, Mean, read-out: AUClast): 15.2 ng·h/mL
Cmax (Sprague Dawley, rat, plasma, po, 10 mg/kg, Rat (Sprague Dawley) po 10 mg/kg, Mean, read-out: Cmax): 2.91 ng/mL
MRT inf (Sprague Dawley, rat, plasma, po, 10 mg/kg, Rat (Sprague Dawley) po 10 mg/kg, Mean, read-out: MRTInf_obs): 8.9 h
half-life (Sprague Dawley, rat, plasma, po, 10 mg/kg, Rat (Sprague Dawley) po 10 mg/kg, Mean): 293 min
MRT inf (Sprague Dawley, rat, plasma, po, 10 mg/kg, Rat (Sprague Dawley) po 10 mg/kg, individual Rat 4-6, read-out: MRTInf_obs): 7.27 h
half-life (Sprague Dawley, rat, plasma, po, 10 mg/kg, Rat (Sprague Dawley) po 10 mg/kg, individual Rat 4-6): 223 min
concentration at 0.25 h [1]: 0.716 ng/mL
concentration at 0.25 h [2]: 0.359 ng/mL
concentration at 0.25 h [3]: 0.3 ng/mL
concentration at 0.25 h [4]: 0.458 ng/mL
concentration at 0.5 h [1]: 0.914 ng/mL
concentration at 0.5 h [2]: 0.366 ng/mL
concentration at 0.5 h [3]: 0.377 ng/mL
concentration at 0.5 h [4]: 0.552 ng/mL
concentration at 1 h [1]: 1.39 ng/mL
concentration at 1 h [2]: 0.438 ng/mL
concentration at 1 h [3]: 0.426 ng/mL
concentration at 1 h [4]: 0.75 ng/mL
concentration at 2 h [1]: 1.55 ng/mL
concentration at 2 h [2]: 2.39 ng/mL
concentration at 2 h [3]: 0.737 ng/mL
concentration at 2 h [4]: 1.56 ng/mL
concentration at 4 h [1]: 3.5 ng/mL
concentration at 4 h [2]: 4.02 ng/mL
concentration at 4 h [3]: 1.2 ng/mL
concentration at 4 h [4]: 2.91 ng/mL
concentration at 8 h [1]: 1.66 ng/mL
concentration at 8 h [2]: 2.46 ng/mL
concentration at 8 h [3]: 0.71 ng/mL
concentration at 8 h [4]: 1.61 ng/mL
concentration at 4 h (Sprague-Dawley, rat, brain, iv, 3 mg/kg, Rat (Sprague Dawley) iv 3 mg/kg (IVB), brain, Group 1, Group 2, detected value multiplied by 3, read-out: brain Actual Conc.): 42.6 ng/g
concentration at 4 h (Sprague-Dawley, rat, brain, iv, 3 mg/kg, Rat (Sprague Dawley) iv 3 mg/kg (IVB), brain, Mean, read-out: brain Actual Conc.): 39.9 ng/g
MRT inf (Sprague-Dawley, rat, plasma, iv, 3 mg/kg, Sprague Dawley rat, iv 3 mg/kg, Rat 1, read-out: MRTInf_obs Rat 1): 3.26 h
MRT inf (Sprague-Dawley, rat, plasma, iv, 3 mg/kg, Sprague Dawley rat, iv 3 mg/kg, Rat 2, read-out: MRTInf_obs Rat 2): 3.15 h
MRT inf (Sprague-Dawley, rat, plasma, iv, 3 mg/kg, Sprague Dawley rat, iv 3 mg/kg, Rat 3, read-out: MRTInf_obs Rat 3): 2.92 h
MRT inf (Sprague-Dawley, rat, plasma, iv, 3 mg/kg, Sprague Dawley rat, iv 3 mg/kg, mean of 3 rats, read-out: MRTInf_obs Mean): 3.11 h
concentration at 5 min [5]: 671 ng/mL
concentration at 5 min [6]: 652 ng/mL
concentration at 5 min [7]: 700 ng/mL
concentration at 5 min [8]: 674 ng/mL
concentration at 0.25 h [5]: 396 ng/mL
concentration at 0.25 h [6]: 418 ng/mL
concentration at 0.25 h [7]: 469 ng/mL
concentration at 0.25 h [8]: 428 ng/mL
concentration at 0.5 h [5]: 307 ng/mL
concentration at 0.5 h [6]: 292 ng/mL
concentration at 0.5 h [7]: 312 ng/mL
concentration at 0.5 h [8]: 304 ng/mL
concentration at 1 h [5]: 236 ng/mL
concentration at 1 h [6]: 232 ng/mL
concentration at 1 h [7]: 207 ng/mL
concentration at 1 h [8]: 225 ng/mL
concentration at 2 h [5]: 141 ng/mL
concentration at 2 h [6]: 159 ng/mL
concentration at 2 h [7]: 132 ng/mL
concentration at 2 h [8]: 144 ng/mL
concentration at 4 h [5]: 86 ng/mL
concentration at 4 h [6]: 77.7 ng/mL
concentration at 4 h [7]: 64.5 ng/mL
concentration at 4 h [8]: 76.1 ng/mL
concentration at 8 h [5]: 27.5 ng/mL
concentration at 8 h [6]: 24.8 ng/mL
concentration at 8 h [7]: 20.3 ng/mL
concentration at 8 h [8]: 24.2 ng/mL
concentration at 24 h [5]: 0.454 ng/mL
concentration at 24 h [6]: 0.545 ng/mL
concentration at 24 h [7]: 0.488 ng/mL
concentration at 24 h [8]: 0.496 ng/mL
Tmax (plasma, Rat (Sprague Dawley) po 10 mg/kg, individual Rat 4-6): 4 h
SMILES: O=C1CCC(N2C(=O)c3cccc(NCCOCCOCCNCc4ccc(-n5cc(NC(=O)c6coc(-c7ccnc(NCC8CC8)c7)n6)c(C(F)F)n5)cc4)c3C2=O)C(=O)N1 (stereo not drawn) [I-210, 2-[2-(Cyclopropylmethylamino)-4-pyridyl]-N-[3-(difluoromethyl)-1-[4-[[2-[2-[2-[[2-(2,6-dioxo-3-piperidyl)-1,3-dioxoisoindolin-4-yl]amino]ethoxy]ethoxy]ethylamino]methyl]phenyl]pyrazol-4-yl]oxazole-4-carboxamide]
